Data set [1] addresses T1, EGFR T790M/L858R (Homo sapiens, UniProt P00533, L858R/T790M).
T1 construct: purchased Invitrogen PR8911A
The experiment in a line: Mutant EGFR T790M/L858R activity inhibition assay (Caliper mobility shift). Type of data set: biochemical. The following applies: read-out: enzyme activity inhibition (IC50) EGFR T790M/L858R. The procedure: The assay procedure is as follows. […] 5 μl of the compound dissolved in 10% DMSO at a concentration of 5-fold of the final reaction concentration was added to a 384 well plate. 5 μl of 10% DMSO was used in a no-compound control well, while 5 μl of a kinase buffer was used in a no-enzyme activity control well. […] The conversion rate was read on Caliper EZ Reader II (Caliper Life Sciences). The conversion rate was then converted to inhibitory rate.
As used herein, “max” refers to the conversion rate of the DMSO no-compound control well, and “min” refers to the conversion rate of the no-enzyme activity control well. A curve was obtained by plotting the inhibitory rate as a function of the compound concentration. The XLFit excel add-in version 4.3.1 software was used to fit the curve and calculate the IC50. Inhibitory rate %=(max−conversion rate)/(max−min)×100.

Data set [2] has as its system H1975. The experiment in a line: Inhibition assay on tumor cell proliferation (CellTiter-Glo), H1975. As to conditions: H1975 (L858R and T790M EGFR double mutation), 72 hours, 10% bovine serum. Type of data set: cell-based, Human. In general terms: Cellular ATP, detected with luciferase, serves as a proxy for viable cell number.
In data set [3] the test system is LOVO. Nature of the data set: Inhibition assay on tumor cell proliferation (CellTiter-Glo), LOVO. Type of data set: cell-based, Human. The following applies: LOVO (wild-type EGFR), 72 hours, 10% bovine serum. The procedure:
(§1) By using a CellTiter-Glo luminescence cell viability test kit (Promega, # G7572), the content of adenosine triphosphate (ATP) was determined to assess the cell viability.
(§2) Human colon cancer cell line LOVO and human non-small-cell lung cancer H358 express wild-type EGFR. Human non-small-cell lung cancer cell line HCC827 carries deletion mutation in exon 19 (ex19del). Those cell lines are purchased from Shanghai Fudan IBS Cell Resource Center and American Tissue Culture Collection (ATCC).
(§3) The assay procedure is as follows. The cells in a cell culture plate were digested with a pancreatic enzyme, re-suspended in a DPBS culture medium, and had the cell density counted by Scepter automated cytometer (Millipore # PHCC00000). The cells were diluted to a solution of 44,000 cells per ml. The cell solution with adjusted density was added to the cell assay plate at 90 microliters per well. The plate was placed in an incubator with 5% CO2 at 37° C. for 24 hours of incubation, and then added with different concentrations of subject compounds. The cells were incubated for 72 hours with the compounds in presence of 10% bovine serum. The content of ATP was determined by a CellTiter-Glo® Luminescent Cell Viability Assay kit (see the manufacturer's instruction for details) to evaluate cell-growth inhibition.
(§4) Briefly, 30 μl of CellTiter-Glo® reagent was added to each well, and then shaken for 10 minutes to induce cell lysis. The fluorescent signal was detected and recorded by Fluoroskan Ascent FL (Thermo). The max signal value was obtained from the cells treated by dimethyl sulfoxide for 72 hours. The min signal value was obtained from the medium alone (the number of the cells was 0). Inhibitory rate %=(max signal value−compound signal value)/(max signal value−min signal value)×100. The data was processed by GraphPad Prism V5.0 software (GraphPad Software, San Diego, Calif.). Sigmoidal dose-response curve fitting was performed to calculate the IC50 value.

Data set [4] has as its system H358. The experiment in a line: Inhibition assay on tumor cell proliferation (CellTiter-Glo), H358. Type of data set: cell-based, Human. As to conditions: H358 (wild-type EGFR), 72 hours, 10% bovine serum. Here is the method:
as §1, §2, §3, §4

Here are results for 15 compounds from patent US11267802B2 (BEBETTER MED INC., priority 2015, dated 2022).

Usually melting point stands for the temperature of the solid-liquid transition.

T1 sequence (P00533 25-1210 T790M/L858R): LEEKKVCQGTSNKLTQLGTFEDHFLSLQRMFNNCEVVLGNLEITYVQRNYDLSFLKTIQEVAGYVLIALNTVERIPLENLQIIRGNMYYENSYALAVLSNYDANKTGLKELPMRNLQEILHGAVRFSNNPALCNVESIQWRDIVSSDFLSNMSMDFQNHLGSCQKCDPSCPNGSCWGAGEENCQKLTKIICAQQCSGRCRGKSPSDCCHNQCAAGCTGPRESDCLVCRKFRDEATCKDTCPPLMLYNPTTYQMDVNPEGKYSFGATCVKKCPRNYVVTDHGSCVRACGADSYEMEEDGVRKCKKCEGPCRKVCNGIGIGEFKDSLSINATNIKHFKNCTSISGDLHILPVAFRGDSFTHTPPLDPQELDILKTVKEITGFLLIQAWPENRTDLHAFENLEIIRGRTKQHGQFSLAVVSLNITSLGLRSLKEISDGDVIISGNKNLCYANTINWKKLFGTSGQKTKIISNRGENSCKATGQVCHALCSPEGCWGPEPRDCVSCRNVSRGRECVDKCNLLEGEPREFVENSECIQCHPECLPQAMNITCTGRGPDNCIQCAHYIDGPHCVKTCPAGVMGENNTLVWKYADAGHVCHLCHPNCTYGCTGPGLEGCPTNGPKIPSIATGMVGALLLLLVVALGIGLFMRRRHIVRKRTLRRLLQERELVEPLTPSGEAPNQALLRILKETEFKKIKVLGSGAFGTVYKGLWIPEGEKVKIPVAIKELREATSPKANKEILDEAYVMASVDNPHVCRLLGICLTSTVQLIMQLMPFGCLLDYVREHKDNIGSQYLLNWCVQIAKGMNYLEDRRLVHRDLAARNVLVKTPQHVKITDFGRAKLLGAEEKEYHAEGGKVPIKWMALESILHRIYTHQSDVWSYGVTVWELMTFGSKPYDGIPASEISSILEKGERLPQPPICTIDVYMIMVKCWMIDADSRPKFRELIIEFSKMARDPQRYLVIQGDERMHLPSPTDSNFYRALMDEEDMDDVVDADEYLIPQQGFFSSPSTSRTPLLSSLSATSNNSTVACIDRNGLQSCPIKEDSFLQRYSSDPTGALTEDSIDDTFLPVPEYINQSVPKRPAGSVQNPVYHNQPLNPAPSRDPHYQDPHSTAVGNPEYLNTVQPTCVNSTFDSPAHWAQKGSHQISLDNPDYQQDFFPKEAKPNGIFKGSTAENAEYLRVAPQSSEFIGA

In turn, `CC#CC(=O)Nc1cc(Nc2nccc(-n3ccc4ccccc43)n2)c(OC)cc1N(C)CCN(C)C` [Compound 73, N-(5-((4-(1H-indol-1-yl)pyrimidin-2-yl)amino)-2-((2-(dimethylamino)ethyl)(methyl)amino)-4-methoxyphenyl)but-2-ynamide] gave a melting point of 189.7 to 191.8 °C. The IC50 in data set [1] is 1 to 10 nM. In data set [2] (Homo sapiens, NCI-H1975), this compound registered an IC50 of 50 to 100 nM. This compound showed an IC50 in data set [3] (Homo sapiens) greater than 1000 nM. In addition, in data set [4] (Homo sapiens, NCI-H358), the IC50 was greater than 1000 nM.
In turn, `C=CC(=O)Nc1cc(Nc2nccc(-n3ccc4cc(F)ccc43)n2)c(OC)cc1N(C)CCN(C)C` [Compound 28, N-(2-((2-(dimethylamino)ethyl)(methyl)amino)-5-((4-(5-fluoro-1H-indol-1-yl)pyrimidin-2-yl)amino)-4-methoxyphenyl)acrylamide] had a melting point of 168 to 170 °C. Also, the IC50 in data set [1] is less than 1 nM. Also, the IC50 in data set [2] (Homo sapiens, NCI-H1975) was less than 10 nM. The compound further registered an IC50 in data set [3] (Homo sapiens) greater than 1000 nM. This compound had an IC50 in data set [4] (Homo sapiens, NCI-H358) of 100 to 1000 nM.
The compound `C=CC(=O)Nc1cc(Nc2nccc(-n3ccc4ccccc43)n2)c(OC)cc1N1CC(N(C)C)C1` [Compound 77, N-(5-(4-(1H-indol-1-yl)pyrimidin-2-ylamino)-2-(3-(dimethylamino)azetidin-1-yl)-4-methoxyphenyl)acrylamide] gave a melting point of 81 to 83 °C. In data set [1], the IC50 fell in the range of 1 to 10 nM. Besides, the IC50 in data set [2] (Homo sapiens, NCI-H1975) lay within 10 to 50 nM. The same compound yielded an IC50 in data set [3] (Homo sapiens) greater than 1000 nM.
The compound `C=CC(=O)Nc1cc(Nc2nccc(-n3ccc4ccccc43)n2)c(OC)cc1N1CC[C@@H](N(C)C)C1` [Compound 79, (R)—N-(5-((4-(1H-indol-1-yl)pyrimidin-2-yl)amino)-2-(3-(dimethylamino)pyrrolidin-1-yl)-4-methoxyphenyl)acrylamide] displayed a melting point of 161 to 162 °C. The IC50 in data set [1] was less than 1 nM. The IC50 in data set [2] (Homo sapiens, NCI-H1975) lay in the range of 50 to 100 nM. This compound also displayed an IC50 in data set [3] (Homo sapiens) greater than 1000 nM. This compound also showed an IC50 in data set [4] (Homo sapiens, NCI-H358) greater than 1000 nM.
For `C=CC(=O)Nc1cc(Nc2nccc(-n3ccc4cc(OCCO)ccc43)n2)c(OC)cc1N(C)CCN(C)C` [Compound 37, N-(2-((2-(dimethylamino)ethyl)(methyl)amino)-5-((4-(5-(2-hydroxyethoxy)-1H-indol-1-yl)pyrimidin-2-yl)amino)-4-methoxyphenyl)acrylamide], the melting point was 65 to 67 °C. The IC50 in data set [1] was less than 1 nM. In addition, the IC50 in data set [2] (Homo sapiens, NCI-H1975) was less than 10 nM. Besides, in data set [3] (Homo sapiens), the IC50 is greater than 1000 nM. In data set [4] (Homo sapiens, NCI-H358), the IC50 lay in the range of 100 to 1000 nM.
For `C=CC(=O)Nc1cc(Nc2nccc(-n3ccc4cc(O)ccc43)n2)c(OC)cc1N(C)CCN(C)C` [Compound 36, N-(2-((2-(dimethylamino)ethyl)(methyl)amino)-5-((4-(5-hydroxy-1H-indol-1-yl)pyrimidin-2-yl)amino)-4-methoxyphenyl)acrylamide] the same measures were 218 to 219 °C, less than 1 nM, less than 10 nM, greater than 1000 nM and 100 to 1000 nM.
As for `C=CC(=O)Nc1cc(Nc2ncc(OC)c(-n3ccc4ccccc43)n2)c(OC)cc1N(C)CCN(C)C` [Compound 6, N-(5-((4-(1H-indol-1-yl)-5-methoxypyrimidin-2-yl)amino)-2-((2-(dimethylamino)ethyl)(methyl)amino)-4-methoxyphenyl)acrylamide], the melting point lay in the range of 143.3 to 147.8 °C. Further, in data set [1], the IC50 lay within 1 to 10 nM. The compound also had an IC50 in data set [2] (Homo sapiens, NCI-H1975) of less than 10 nM. In addition, in data set [3] (Homo sapiens), the IC50 was greater than 1000 nM. For the same compound, the IC50 in data set [4] (Homo sapiens, NCI-H358) was greater than 1000 nM.
In the case of `C=CC(=O)Nc1cc(Nc2nccc(-n3ccc4cc(C(N)=O)ccc43)n2)c(OC)cc1N(C)CCN(C)C` [Compound 41, 1-(2-((5-acrylamido-4-((2-(dimethylamino)ethyl)(methyl)amino)-2-methoxyphenyl)amino)pyrimidin-4-yl)-1H-indole-5-carboxamide], the melting point lay within 121.3 to 125.1 °C. For the same compound, the IC50 in data set [1] is less than 1 nM. Besides, the IC50 in data set [2] (Homo sapiens, NCI-H1975) is less than 10 nM. In data set [3] (Homo sapiens), the IC50 was greater than 1000 nM. The compound further had an IC50 in data set [4] (Homo sapiens, NCI-H358) of 100 to 1000 nM.
The matching figures for `C=CC(=O)Nc1cc(Nc2ncc(C(F)(F)F)c(-n3ccc4ccccc43)n2)c(OC)cc1N(C)CCN(C)C` [Compound 5, N-(5-((4-(1H-indol-1-yl)-5-(trifluoromethyl)pyrimidin-2-yl)amino)-2-((2-(dimethylamino)ethyl)(methyl)amino)-4-methoxyphenyl)acrylamide]: 161 to 162 °C, 1 to 10 nM, less than 10 nM, greater than 1000 nM and 100 to 1000 nM.
The compound `C=CC(=O)Nc1cc(Nc2nccc(-n3ccc4ccccc43)n2)c(OC)cc1N(C)CCN1CCCC1` [Compound 80, N-(5-(4-(1H-indol-1-yl)pyrimidin-2-ylamino)-4-methoxy-2-(methyl(2-(pyrrolidin-1-yl)ethyl)amino)phenyl)acrylamide] displayed a melting point of 151 to 153 °C. Also, in data set [1], the IC50 fell in the range of 1 to 10 nM. In addition, the IC50 in data set [2] (Homo sapiens, NCI-H1975) was less than 10 nM. The IC50 in data set [3] (Homo sapiens) is greater than 1000 nM. For the same compound, the IC50 in data set [4] (Homo sapiens, NCI-H358) is greater than 1000 nM.
Regarding `C=CC(=O)Nc1cc(Nc2nccc(-n3ccc4cc(OC)ccc43)n2)c(OC)cc1N(C)CCN(C)C` [Compound 27, N-(2-((2-(dimethylamino)ethyl)(methyl)amino)-4-methoxy-5-((4-(5-methoxy-1H-indol-1-yl)pyrimidin-2-yl)amino)phenyl)acrylamide], the melting point fell in the range of 117 to 118 °C. Moreover, in data set [1], the IC50 is less than 1 nM. The IC50 in data set [2] (Homo sapiens, NCI-H1975) is less than 10 nM. The same compound came in with an IC50 in data set [3] (Homo sapiens) greater than 1000 nM. Also, the IC50 in data set [4] (Homo sapiens, NCI-H358) fell in the range of 100 to 1000 nM.
The matching figures for `C=CC(=O)Nc1cc(Nc2nccc(-n3ccc4cc(C#N)ccc43)n2)c(OC)cc1N(C)CCN(C)C` [Compound 33, N-(5-((4-(5-cyano-1H-indol-1-yl)pyrimidin-2-yl)amino)-2-((2-(dimethylamino)ethyl)(methyl)amino)-4-methoxyphenyl)acrylamide]: 127 to 128 °C, less than 1 nM, less than 10 nM, greater than 1000 nM and 100 to 1000 nM.
For `COc1cc(N(C)CCN(C)C)c(NC(=O)/C=C/CN(C)C)cc1Nc1nccc(-n2ccc3ccccc32)n1` [Compound 69, (E)-N-(5-((4-(1H-indol-1-yl)pyrimidin-2-yl)amino)-2-((2-(dimethylamino)ethyl)(methyl)amino)-4-methoxyphenyl)-4-(dimethylamino)but-2-enamide] the same measures were 116.2 to 118.1 °C, less than 1 nM, 50 to 100 nM, 100 to 1000 nM and 100 to 1000 nM.
For `C=CC(=O)Nc1cc(Nc2nccc(-n3c(=O)n(C)c4cc(OC)ccc43)n2)c(OC)cc1N(C)CCN(C)C` [Compound 53, N-(2-((2-(dimethylamino)ethyl) (methyl)amino)-4-methoxy-5-((4-(5-methoxy-3-methyl-2-oxo-2,3-dihydro-1H-benzo[d]imidazol-1-yl)pyrimidin-2-yl)amino)phenyl)acryl amide], the IC50 was less than 1 nM in data set [1], 10 to 50 nM in data set [2], greater than 1000 nM in data set [3] and 50 to 100 nM in data set [4].
With `C=CC(=O)Nc1cc(Nc2nccc(-n3ccc4cc([N+](=O)[O-])ccc43)n2)c(OC)cc1N(C)CCN(C)C` [Compound 34, N-{2-[(2-Dimethylamino-ethyl)-methyl-amino]-4-methoxy-5-[4-(5-nitro-indol-1-yl)-pyrimidin-2-ylamino]-phenyl}-acryl amide], the IC50 in data set [1] is 1 to 10 nM; in data set [2] (Homo sapiens, NCI-H1975), less than 10 nM; in data set [3] (Homo sapiens), greater than 1000 nM; in data set [4] (Homo sapiens, NCI-H358) it was 100 to 1000 nM.
